Results published in US5976830A, “Methods of producing doxorubicin” (priority 1996, dated 1999).

System: Streptomyces lividans TK24(pANT195)
Experiment: Viability of doxA-transformed culture incubated with daunomycin
Type: cell-based
Protocol: Cultures of S. lividans TK24 containing plasmid pANT195 and control cultures of S. lividans TK24 containing plasmid pANT849 were grown on R2YE agar medium containing 10 μg/ml of thiostrepton in standard 100 mm×15 mm plastic petri dishes for 5 days at 30° C., at which time the entire cultures had sporulated. The spores from one entire petri plate were used to inoculate 50 ml of modified YEME medium in 250 ml erlenmeyer flasks. Then 10 μg/ml thiostrepton in DMSO were added to the medium. The thiostrepton was added as selective pressure to maintain the plasmids. The cultures were grown for 48 hours at 30° C. with rotary shaking at 250 rpm, one inch throw on the shaker. After 48 hours, a 1.5 ml sample was removed for plasmid analysis to ensure the presence and size of the insert DNA containing the doxA gene using a "mini-prep" procedure according to Carter, M. J., and I. D. Milton, (1993), "An Inexpensive and Simple Method for DNA Purification on Silica Particles," Nucleic Acids Res., Vol. 21, page 1044. Restriction endonuclease digestion with BspEI and agarose gel electrophoresis generated 1.7 kbp, 2.2 kbp, and 3.14 kbp fragments which indicated an intact plasmid and insert. Then a 10 μL solution containing 100 μg of filter sterilized daunomycin-HCl in distilled water was added to the cultures for a final concentration of 2.0 μg of daunomycin per ml of culture broth. Incubation was continued for 72 hours.
The procedure of Example 1 was repeated, with the following exceptions. The cultures were grown at 28° C. rather than 30° C., for 48 hours. After 48 hours of growth, 500 μg of daunomycin-HCl were added to the cultures for a final concentration of 10.0 μg/ml of daunomycin followed by further incubation for 36 hours, instead of 72 hours.
A 50 ml culture of Streptomyces lividans TK24(pANT195) culture was prepared as in Example 1. […] The cultures were incubated for 48 hours and then extracted as described in Example 1 and analyzed by HPLC and TLC. […]

COc1cccc2c1C(=O)c1c(O)c3c(c(O)c1C2=O)C[C@@](O)(C(C)=O)C[C@@H]3O[C@H]1C[C@H](N)[C@H](O)[C@H](C)O1 [daunomycin]
state of the cultures after incubation with daunomycin (2 μg/ml of daunomycin, cultures of Examples 1 and 2): fully viable
toxicity to the host (16.7 μg/ml of daunomycin, about 8-fold concentrated mycelia in MOPS buffer pH 7.2 (Example 10)): toxic to the host
state of the doxA transformed culture at the end of incubation (22.2 μg/ml daunomycin, 48 hours, 28° C., YEME medium (Example 3)): virtually dead
